Measurements as given in patent US12281086B2, “2-aminothiazoles derivatives and method of preparation thereof using super-paramagnetic iron oxide nanoparticles (SPIONs)” (Imam Abdulrahman Bin Faisal University, priority 2023, dated 2025).

Key:
Assay type in all cases: cell-based
[1] = tested on: B. subtilis; assay: Anti-microbial activity, inhibition zone, B. subtilis; as to Inhibition Zone(mm ± SD) Bacillus: test concentration or dose not given here; details: for Inhibition Zone(mm ± SD) Bacillus: Bacillus (B. subtilis)
Procedure: (§1) All synthesized compounds were tested for their antimicrobial activities against five types of microorganisms, including gram-negative and positive bacteria and fungi. The gram-negative bacteria include E. coli and P. aeruginosa, while B. subtilis and S. aureus represented the gram-positive bacteria. C. albicans was the fungus used in the screening. […] In addition, the antibacterial activity of the Schiff bases seems to be insensitive to the position and the nature of the substituents. […] For the gram-positive bacteria, the antibacterial activity was more significant in Schiff base derivatives when compared to azo derivatives.

[2] = tested on: S. aureus; assay: Anti-microbial activity, inhibition zone, S. aureus; as to Inhibition Zone(mm ± SD) S. aureus: test concentration or dose not given here
Procedure: as §1

[3] = tested on: E. coli; assay: Anti-microbial activity, inhibition zone, E. coli; as to Inhibition Zone(mm ± SD) E. coli: test concentration or dose not given here
Procedure: as §1

[4] = tested on: C. albicans; assay: Anti-microbial (antifungal) activity, inhibition zone, C. albicans; also: test concentration or dose not given here
Procedure: as §1

[5] = tested on: P. aeruginosa; assay: Anti-microbial activity, inhibition zone, P. aeruginosa; as to Inhibition Zone(mm ± SD) P. aeruginosa: test concentration or dose not given here
Procedure: as §1

Row | SMILES | Inhibition Zone(mm ± SD) Bacillus [1] | Inhibition Zone(mm ± SD) S. aureus [2] | Inhibition Zone(mm ± SD) E. coli [3] | Inhibition Zone(mm ± SD) Candida [4] | Inhibition Zone(mm ± SD) P. aeruginosa [5] | antibacterial activity against E. coli (in words) [3] | growth inhibition against P. aeruginosa (in words) [5] | activity against B. subtilis (in words) [1] | activity against S. aureus (in words) [2]
1 | Nc1nccs1 [Compound 1, 2-aminothiazole] | Nil | Nil | 9.8 ± 0.2 mm | Nil | Nil | – | – | – | –
2 | ClN=Nc1nccs1 [Compound 2, 2-(Chlorodiazenyl)Thiazole] | Nil | Nil | 10.15 ± 0.4 mm | Nil | Nil | – | – | – | –
3 | CC1=NNC(=O)C1N=Nc1nccs1 (stereo not drawn) [Compound 6, 3-methyl-4-(thiazol-2-yldiazenyl)-1H-pyrazol-5(4H)-one] | Nil | Nil | 22 ± 0.8 mm | Nil | 16 mm | most potent antibacterial activity | showed growth inhibition | – | –
4 | NC1=NNC(=O)C1N=Nc1nccs1 (stereo not drawn) [Compound 7, 3-amino-4-(thiazol-2-yldiazenyl)-1H-pyrazol-5(4H)-one] | 8.6 ± 0.4 mm | 12.3 ± 0.9 mm | 16 ± 1.4 mm | 12 ± 0 mm | Nil | – | – | showed activity | showed activity
5 | CC1=NN=C(C)C1N=Nc1nccs1 [Compound 8, (3,5-Dimethyl-4H-pyrazol-4-yl)-thiazol-2-yl-diazene] | 10.6 ± 0.4 mm | Nil | 20.6 ± 0.9 mm | Nil | Nil | – | – | – | –
6 | C(=Nc1nccs1)c1ccccc1 [Compound 9, N-(benzylidene)thiazol-2-amine] | Nil | Nil | 8.8 ± 0.4 mm | Nil | 8 ± 0 mm | least potent | showed growth inhibition | – | –
7 | Clc1ccc(C=Nc2nccs2)cc1 [Compound 10, N-(4-chlorobenzylidene)thiazol-2-amine] | Nil | Nil | 14.3 ± 0.4 mm | Nil | Nil | – | – | – | –
8 | O=[N+]([O-])c1ccccc1C=Nc1nccs1 [Compound 11, N-(2-nitrobenzylidene)thiazol-2-amine] | 8.6 ± 0.9 mm | 10.6 ± 0.4 mm | 12.3 ± 0.9 mm | Nil | 11.8 ± 0.6 mm | – | showed growth inhibition | exhibited activities | exhibited activities
9 | Oc1ccc(C=Nc2nccs2)cc1 [Compound 12, 4-((thiazol-2-ylimino)methyl)phenol] | Nil | 10.3 ± 0.7 mm | 13.3 ± 1.2 mm | Nil | Nil | – | – | – | –
10 | Oc1ccccc1C=Nc1nccs1 [Compound 13, 2-((thiazol-2-ylimino)methyl)phenol] | 11.3 ± 0.4 mm | 9.6 ± 0.3 mm | 14.95 ± 0.5 mm | Nil | 9 ± 0.8 mm | – | showed growth inhibition | exhibited activities | exhibited activities
11 | COc1ccc(C=Nc2nccs2)cc1 [Compound 14, N-(4-methoxybenzylidene)thiazol-2-amine] | 10.3 ± 0.4 mm | Nil | 12.3 ± 0.4 mm | Nil | Nil | – | – | – | –
12 | COc1ccccc1C=Nc1nccs1 [Compound 15, N-(2-methoxybenzylidene)thiazol-2-amine] | Nil | Nil | 12.6 ± 0.5 mm | Nil | Nil | – | – | – | –
13 | COc1ccc(C=Nc2nccs2)c(OC)c1 [Compound 16, N-(2,4-dimethoxy-benzylidene)-thiazol-2-yl-amine] | 12.3 ± 0.4 mm | 13 ± 0.1 mm | 13 ± 0.4 mm | Nil | Nil | – | – | exhibited activities | exhibited activities
14 | COc1cccc(C=Nc2nccs2)c1OC [Compound 17, N-(2,3-dimethoxybenzylidene)thiazol-2-amine] | Nil | 9.3 ± 0.4 mm | 10.95 ± 0.3 mm | Nil | Nil | – | – | – | –
15 | Cc1[nH]c2ccccc2c1C=Nc1nccs1 [Compound 18, N-((2-methyl-1H-indol-3-yl)methylene)thiazol-2-amine] | 10 ± 0.2 mm | 11.3 ± 0.4 mm | 16.2 ± 0.9 mm | Nil | 14.6 ± 0.7 mm | – | showed growth inhibition | – | –
